Measured values from ChEMBL document CHEMBL5500384, “New synergistic benzoquinone scaffolds as inhibitors of mycobacterial cytochrome bc1 complex to treat multi-drug resistant tuberculosis” (Eur J Med Chem, 2024).
Values after ≈ are worked out from the molar mass of the structure shown. Active and inactive are the calls of the source. The rule behind the calls is not given here.

What was measured:
[1] = tested on: Mycolicibacterium smegmatis; test: Antibacterial activity against Mycobacterium smegmatis ATCC 14468 assessed as log2 fold change in integral membrane protein expression at 3 ug/ml incubated for 12 hrs by mass spectrometric analysis; type: functional; conditions: dose 3 µg/ml
[2] = Acute toxicity in Albino mouse assessed as change in hemoglobin level at 50 to 2000 mg/kg, po measured after 14 days (reference value: 12.8 g/dl); type: organism-based; conditions: in vivo, 336 h, dose 50-2000 mg/kg, time 14 day
[3] = tested on: Mycolicibacterium smegmatis; test: Antibacterial activity against Mycobacterium smegmatis ATCC 14468 assessed as log2 fold change in ABC transporter ATP binding protein expression at 3 ug/ml incubated for 12 hrs by mass spectrometric analysis; type: functional; conditions: dose 3 µg/ml
[4] = Acute toxicity in Albino mouse assessed as change in serum creatine level at 50 to 2000 mg/kg, po measured after 14 days (reference value: 0.9 mg/dl); type: organism-based; conditions: in vivo, 336 h, dose 50-2000 mg/kg, time 14 day
[5] = Acute toxicity in Albino mouse assessed as change in ALP level at 50 to 2000 mg/kg, po measured after 14 days (reference value: 28 IU/L); type: organism-based; conditions: in vivo, 336 h, dose 50-2000 mg/kg, time 14 day
[6] = tested on: Mycolicibacterium smegmatis; test: Antibacterial activity against Mycobacterium smegmatis ATCC 14468 assessed as log2 fold change in DppB expression at 3 ug/ml incubated for 12 hrs by mass spectrometric analysis; type: functional; conditions: dose 3 µg/ml
[7] = tested on: Mycolicibacterium smegmatis; test: Antibacterial activity against Mycobacterium smegmatis ATCC 14468 assessed as log2 fold change in adenosine metabolite level by mass spectrometry analysis; type: functional
[8] = Hepatotoxicity in Albino mouse assessed as change in portal tracks at 50 to 2000 mg/kg, po measured after 14 days; type: toxicity, organism-based; conditions: in vivo, 336 h, dose 50-2000 mg/kg, time 14 day
[9] = tested on: Mycolicibacterium smegmatis; test: Antibacterial activity against Mycobacterium smegmatis ATCC 14468 assessed as log2 fold change in beta-alanine metabolite level by mass spectrometry analysis; type: functional
[10] = Acute toxicity in Albino mouse assessed as change in total leucocyte count at 50 to 2000 mg/kg, po measured after 14 days (reference value: 7400 mm3); type: organism-based; conditions: in vivo, 336 h, dose 50-2000 mg/kg, time 14 day
[11] = tested on: Mycolicibacterium smegmatis; test: Antibacterial activity against Mycobacterium smegmatis ATCC 14468 assessed as log2 fold change in probable cytochrome c oxidase subunit 3 expression at 3 ug/ml incubated for 12 hrs by mass spectrometric analysis; type: functional; conditions: dose 3 µg/ml
[12] = Acute toxicity in Albino mouse assessed as change in lymphocytes at 50 to 2000 mg/kg, po measured after 14 days (reference value: 21%); type: organism-based; conditions: in vivo, 336 h, dose 50-2000 mg/kg, time 14 day
[13] = tested on: Mycolicibacterium smegmatis; test: Antibacterial activity against Mycobacterium smegmatis ATCC 14468 assessed as log2 fold change in shikimate transporter expression at 3 ug/ml incubated for 12 hrs by mass spectrometric analysis; type: functional; conditions: dose 3 µg/ml
[14] = tested on: Mycolicibacterium smegmatis; test: Antibacterial activity against Mycobacterium smegmatis ATCC 14468 assessed as log2 fold change in GluD expression at 3 ug/ml incubated for 12 hrs by mass spectrometric analysis; type: functional; conditions: dose 3 µg/ml
[15] = tested on: Mycolicibacterium smegmatis; test: Antibacterial activity against Mycobacterium smegmatis ATCC 14468 assessed as log2 fold change in membrane transport protein expression at 3 ug/ml incubated for 12 hrs by mass spectrometric analysis; type: functional; conditions: dose 3 µg/ml
[16] = Hepatotoxicity in Albino mouse assessed as change in hepatic artery at 50 to 2000 mg/kg, po measured after 14 days; type: toxicity, organism-based, Liver; conditions: in vivo, 336 h, dose 50-2000 mg/kg, time 14 day
[17] = tested on: Mycolicibacterium smegmatis; test: Antibacterial activity against Mycobacterium smegmatis ATCC 14468 assessed as log2 fold change in (22S)-22-hydroxycampest-4-en-3-one metabolite level by mass spectrometry analysis; type: functional
[18] = tested on: Mycolicibacterium smegmatis; test: Antibacterial activity against Mycobacterium smegmatis ATCC 14468 assessed as log2 fold change in cytochrome bd-type quinol oxidase, subunit 1 expression at 3 ug/ml incubated for 12 hrs by mass spectrometric analysis; type: functional; conditions: dose 3 µg/ml
[19] = tested on: Mycolicibacterium smegmatis; test: Antibacterial activity against Mycobacterium smegmatis ATCC 14468 assessed as log2 fold change in methylase expression at 3 ug/ml incubated for 12 hrs by mass spectrometric analysis; type: functional; conditions: dose 3 µg/ml
[20] = Cytotoxicity against african green monkey Vero cells assessed as cell viability at 3.125 ug/ml by MTT assay; type: toxicity, cell-based; conditions: chlorocebus sabaeus, at 3.125 µg/mL, read-out: Activity
[21] = Cytotoxicity against african green monkey Vero cells assessed as cell viability at 50 ug/ml by MTT assay; type: toxicity, cell-based; conditions: chlorocebus sabaeus, at 50 µg/mL, read-out: Activity
[22] = Renal toxicity in Albino mouse assessed as structural absorbability abnormalities at 50 to 2000 mg/kg, po measured after 14 days; type: organism-based; conditions: in vivo, 336 h, dose 50-2000 mg/kg, time 14 day
[23] = tested on: Mycolicibacterium smegmatis; test: Antibacterial activity against Mycobacterium smegmatis ATCC 14468 assessed as log2 fold change in L-(-)-methionine metabolite level by mass spectrometry analysis; type: functional
[24] = Cytotoxicity against african green monkey Vero cells by MTT assay; type: toxicity, cell-based; conditions: chlorocebus sabaeus
[25] = tested on: Mycolicibacterium smegmatis; test: Antibacterial activity against Mycobacterium smegmatis ATCC 14468 assessed as log2 fold change in transposase expression at 3 ug/ml incubated for 12 hrs by mass spectrometric analysis; type: functional; conditions: dose 3 µg/ml
[26] = Renal toxicity in Albino mouse assessed as change in Bowman's capsule at 50 to 2000 mg/kg, po measured after 14 days; type: organism-based; conditions: in vivo, 336 h, dose 50-2000 mg/kg, time 14 day
[27] = Renal toxicity in Albino mouse assessed as change in tubular capillaries at 50 to 2000 mg/kg, po measured after 14 days; type: organism-based; conditions: in vivo, 336 h, dose 50-2000 mg/kg, time 14 day
[28] = tested on: Mycobacterium tuberculosis; test: Antitubercular activity against Mycobacterium tuberculosis H37Rv incubated for 5 days by microtiter plate method; type: functional; conditions: 120 h, time 5 day
[29] = tested on: Mycolicibacterium smegmatis; test: Antibacterial activity against Mycobacterium smegmatis ATCC 14468 assessed as log2 fold change in MmpL protein expression at 3 ug/ml incubated for 12 hrs by mass spectrometric analysis; type: functional; conditions: dose 3 µg/ml
[30] = tested on: Mycolicibacterium smegmatis; test: Antibacterial activity against Mycobacterium smegmatis ATCC 14468 assessed as log2 fold change in DL-gamma-Amino-beta-hydroxybutyric acid metabolite level by mass spectrometry analysis; type: functional
[31] = Acute toxicity in Albino mouse assessed as mortality at 2000 mg/kg, po after 2 to 4 hrs; type: organism-based; conditions: in vivo, time 2-4 hrs
[32] = Pulmonary toxicity in Albino mouse assessed as change in alveoli structure at 50 to 2000 mg/kg, po measured after 14 days; type: organism-based; conditions: in vivo, 336 h, dose 50-2000 mg/kg, time 14 day
[33] = tested on: Mycolicibacterium smegmatis; test: Antibacterial activity against Mycobacterium smegmatis ATCC 14468 assessed as reduction in bacterial growth at 3 ug/ml measured every 6 hrs by spectrometry analysis; type: functional, organism-based; conditions: dose 3.0 µg/ml
[34] = Acute toxicity in Albino mouse assessed as change in platelet count at 50 to 2000 mg/kg, po measured after 14 days (reference value: 3.24 mm3); type: organism-based; parameters: unit not given here; conditions: in vivo, 336 h, dose 50-2000 mg/kg, time 14 day
[35] = Hepatotoxicity in Albino mouse assessed as change in central vein at 50 to 2000 mg/kg, po measured after 14 days; type: toxicity, organism-based; conditions: in vivo, 336 h, dose 50-2000 mg/kg, time 14 day
[36] = Renal toxicity in Albino mouse assessed as change in renal corpuscles at 50 to 2000 mg/kg, po measured after 14 days; type: organism-based; conditions: in vivo, 336 h, dose 50-2000 mg/kg, time 14 day
[37] = Acute toxicity in Albino mouse assessed as change in LDH level at 50 to 2000 mg/kg, po measured after 14 days (reference value: 1052 IU/L); type: organism-based; conditions: in vivo, 336 h, dose 50-2000 mg/kg, time 14 day
[38] = Pulmonary toxicity in Albino mouse assessed as appearance of cilia at 50 to 2000 mg/kg, po measured after 14 days; type: organism-based; conditions: in vivo, 336 h, dose 50-2000 mg/kg, time 14 day
[39] = Hepatotoxicity in Albino mouse assessed as change in hepatocytes at 50 to 2000 mg/kg, po measured after 14 days; type: toxicity, organism-based; conditions: in vivo, 336 h, dose 50-2000 mg/kg, time 14 day

Row | SMILES | log2FC [1] | Activity [2] | log2FC [3] | Activity [4] | Activity [5] | log2FC [6] | log2FC [7] | Activity [8] | log2FC [9] | Activity [10] | log2FC [11] | Activity [12] | log2FC [13] | log2FC [14] | log2FC [15] | Activity [16] | log2FC [17] | log2FC [18] | log2FC [19] | viability at 3.125 ug/ml [20] | also measured
1 | CN(C)c1ccc(C2C(Cl)C(=O)N2C2=C(Cl)C(=O)c3ccccc3C2=O)cc1 (stereo not drawn) | -1.06 | 14.3 g/dL | -6.64 | 0.7 mg/dL | 52 IU/L | -6.64 | -1.69 | Non-Toxic | -1.29 | 9300 mm3 | 2.37 | 34% | -6.64 | -1.78 | -6.64 | Non-Toxic | 3.41 | 5.66 | -1.9 | 100% | viability at 50 ug/ml [21]: 25.4%; Activity [22]: Non-Toxic; log2FC [23]: -4.48; Activity [24]: Dose-Dependent Effect; log2FC [25]: -6.64; Activity [26]: Non-Toxic; Activity [27]: Non-Toxic; MIC [28]: 15.1 µM (≈ 6.25 µg/mL); log2FC [29]: -6.64; log2FC [30]: -1.1; Activity [31]: Toxic; Activity [32]: Non-Toxic; Activity [33]: inactive; Activity [34]: 6.22; Activity [35]: Non-Toxic; Activity [36]: Non-Toxic; Activity [37]: 756 IU/L; Activity [38]: Non-Toxic
2 | COc1ccc(C2C(Cl)C(=O)N2C2=C(Cl)C(=O)c3ccccc3C2=O)cc1 (stereo not drawn) | -6.64 | 13.9 g/dL | -1.98 | 0.8 mg/dL | 44 IU/L | -6.64 | -2.55 | Non-Toxic | -2.47 | 9600 mm3 | 2.57 | 32% | -6.64 | -1.11 | -6.64 | Non-Toxic | 2.67 | 5.6 | -6.64 | 100% | viability at 50 ug/ml [21]: 8.7%; Activity [22]: Non-Toxic; log2FC [23]: -5.44; Activity [24]: Dose-Dependent Effect; log2FC [25]: -1.22; Activity [26]: Non-Toxic; Activity [27]: Non-Toxic; MIC [28]: 31.1 µM (≈ 12.5 µg/mL); log2FC [29]: -1.45; log2FC [30]: -2.72; Activity [39]: Non-Toxic; Activity [31]: Toxic; Activity [32]: Non-Toxic; Activity [33]: inactive; Activity [34]: 5.82; Activity [35]: Non-Toxic; Activity [36]: Non-Toxic; Activity [37]: 842 IU/L; Activity [38]: Non-Toxic
3 | O=C1C(Cl)=C(Cl)C(=O)c2ccccc21 [Dichlon] | -6.64 | 14.3 g/dL | -2.17 | 0.8 mg/dL | 33 IU/L | -6.64 | -1.31 | Non-Toxic | -1 | 10400 mm3 | 2.56 | 53% | -6.64 | -3.7 | -1.79 | Non-Toxic | -2.01 | 5.6 | -1.53 | 100% | viability at 50 ug/ml [21]: 36.1%; Activity [22]: Non-Toxic; log2FC [23]: -3.97; log2FC [25]: -1.92; Activity [26]: Non-Toxic; Activity [27]: Non-Toxic; MIC [28]: 13.8 µM (≈ 3.12 µg/mL); log2FC [29]: -6.64; log2FC [30]: -2.75; Activity [39]: Non-Toxic; Activity [32]: Non-Toxic; Activity [33]: inactive; Activity [35]: Non-Toxic; Activity [36]: Non-Toxic; Activity [37]: 1030 IU/L; Activity [38]: Non-Toxic
